Measured values published in ChEMBL document CHEMBL3507680, “University of Dundee, Gates Library screen for HepG2 cell viability”.

assay: Human HepG2 cell viability assay in 384 well format; type: toxicity, cell-based; set-up: dose 125 nL, time 70.5 hour; cytotoxicity at 70.5 h: concentration not given beside the values; details: HepG2 cells, read-out: Inhibition

Structure (SMILES)	cytotoxicity at 70.5 h [%]
CNc1ncccc1C(=O)N1CCN(Cc2ccc(C)cc2)C(=O)C1C (stereo unspecified)	-13.8
c1ccc(C[C@H]2CN(C3CCOCC3)CC[C@H]2OCC2CC2)cc1	-8.83
O=C(c1cncc(N2CCC3(CCNCC3)CC2)n1)N1CCCC1	12.4
CCc1nc(CN(C(C)=O)C2CCN(CCc3ccccn3)C2)no1 (stereo unspecified)	-11.5
CCCN1CCCC2(CCN(c3nc(C)nc4ccsc34)C2)C1=O (stereo unspecified)	-3.49
CCC(CNC(=O)Cc1c(C)noc1C)N1CCCC1 (stereo unspecified)	-6.77
Cn1ccc(C(=O)N2CCOC(c3ccc(C(N)=O)cn3)C2)n1 (stereo unspecified)	0.762
CCCN1CCC(N2CCC(Cn3cc(CC(C)O)nn3)CC2)CC1 (stereo unspecified)	-6.23
Cc1cccc(CN2CCCC(O)(CNCCN3CCCCC3)C2=O)c1 (stereo unspecified)	2.73
Cc1nc(C)c(CC(=O)N2CCN(CC(C)C)CC2)c(=O)[nH]1	2.2
CNC(=O)[C@H]1C[C@@H]2CN(Cc3c(C)noc3C)C[C@@H]2N1C(C)=O	-3.36
CC(=O)Nc1nc(C2CCN(C(=O)c3cncs3)CC2)cs1	11.2
CCNc1nc(C)c(C(=O)N(C)Cc2noc(C)n2)s1	11.7
OC(COCc1ccco1)CN1CCC(Cn2cccn2)CC1 (stereo unspecified)	-14.1
CCCn1nnnc1CN1Cc2ccccc2CC1c1nnc(C)o1 (stereo unspecified)	-8.77
Cc1ccoc1C(=O)N1CCCc2c(c(=O)n(C)n2C)C1	11.9
O=C(Cc1cccnc1)N1CC(Cc2nccc3cc[nH]c23)C1	6.89
CC(=O)NC1CCN(c2ccc(C#N)cc2C(F)(F)F)CC1	-1.95
CSc1nc2cc(C)n(CC(N)=O)c2c(=O)n1CC(C)C	0.849

Structure (SMILES)	cytotoxicity at 70.5 h [%]
O=C(CS(=O)(=O)Cc1ccc(Br)cc1F)Nc1cn[nH]c1	4.02
Cn1ccnc1C(NCc1csc(Br)c1)c1ccccc1 (stereo unspecified)	-1.31
CCC1(CC)CC(=O)N(CC(O)c2ccc(F)cc2)C1=O (stereo unspecified)	-9.84
CCN(CC(=O)NC)C(=O)c1sc(Cc2ccccc2)nc1C	-11.7
CC(C)(C)c1ccn(C2(C(=O)O)CCN(c3ncccc3C#N)CC2)n1	-2.37
CC(Cn1cccn1)NCc1csc(-c2ncccn2)n1 (stereo unspecified)	3.56
NC1CCN(C(=O)c2cnc(Cc3c(Cl)cccc3Cl)nc2O)C1 (stereo unspecified)	13.3
CC1c2ncc(Cn3cncn3)n2CCN1C(=O)Cc1cccs1 (stereo unspecified)	-6.55
Cc1nc(CN2CC(=O)N(C)c3ccccc3C2=O)no1	-1.75
CCCc1nnc(N2CCC(N3CCN(CCO)CC3)CC2)o1	-5.69
Cc1ccc(OCCCNC(=O)CN(C)c2ccc(C#N)cn2)cc1	3.18
CC(c1cc(F)ccc1F)N(C)CCS(=O)(=O)CCC(N)=O (stereo unspecified)	-8.99
Cc1cccnc1NC(=O)C1CCCN(c2cccc(C(F)(F)F)n2)C1 (stereo unspecified)	-0.942
CCN(C)C[C@H]1CC[C@@H](Cc2ccc3c(cnn3C)c2)O1	11.5
Cc1ccc(Oc2ncccc2C(=O)N(C)CCCN(C)C)c(C)c1	-5.42
CN(Cc1ccc(Cl)c(F)c1)C(=O)CCc1ccncc1	-6.42
COC(C)(C)CC(C)NCc1cc(-c2ccco2)on1 (stereo unspecified)	-11.4
CC(C)c1ccc(OCCNC(=O)CN2CCN(C)CC2C)cc1 (stereo unspecified)	1.16
CCc1nc(CN2CCCC(Cn3nc(C)nc3C)C2)no1 (stereo unspecified)	-9.12

Structure (SMILES)	cytotoxicity at 70.5 h [%]
c1ccc(CC2(CNCc3ncc[nH]3)CCC2)cc1	-2.49
O=C(c1ccnnc1)N1CCCn2nnc(COCC3CC3)c2C1	6.34
CCCc1n[nH]c(C2CN(CCC(F)(F)F)CCO2)n1 (stereo unspecified)	-5.18
COc1ccc(CC(=O)Nc2cccnc2N2CCCC2)cc1OC	-1.14
Cn1c(C(=O)N(CC(N)=O)C2CCCC2)cc(Cl)c1Cl	-10.6
Cc1cc(CC(C)Nc2ncnc3cccc(F)c23)[nH]n1 (stereo unspecified)	2.32
O=C(NCC1CC1)c1cc(Cl)c2c(c1)OCCCO2	8.95
N#Cc1cccnc1NCCC1CCN(CC(F)(F)F)CC1	-5
Cc1cnc(N2CC[C@@H]3O[C@@H](COCC(=O)N(C)C)CC[C@@H]32)nc1	-99.7
O=C([C@H]1CCCO1)N1CCc2ncnc(NC3CC3)c2CC1	-6.76
O=c1[nH]nc2c(N3CCC(NC4CCOCC4)CC3)nccn12	-11.2
Cc1cnn(CC2CCCCN2C(=O)c2ccc3nncn3c2)c1 (stereo unspecified)	-3.43
O=C(Cn1cccnc1=O)NC(Cc1ccsc1)c1ccccn1 (stereo unspecified)	-11.2
CCN(c1ccsc1C(=O)N1CCSCC1)S(=O)(=O)c1ccc(Cl)cc1	-3.47
COc1cc(OC)cc(C(=O)N2CCOCC2c2[nH]ncc2C)c1 (stereo unspecified)	18
CCn1nnc2c1C(COCCN(C)C)CN(Cc1ccco1)C2 (stereo unspecified)	11.5
Cc1nc(CSCCC(=O)NCc2ccc(-n3cncn3)nc2)cs1	24.6
Cc1ccc(N2C[C@H]3OCC[C@H]3[C@H](C(=O)NC3CCCC3)C2)nn1	-12.6
